Laboratory results reported in patent publication US20220281848A1, “PYRAZOLE-SUBSTITUTED PYRROLIDINONES AS HERBICIDES” (FMC Corporation, priority 2019, published 2022).

Test system: plants
Assay: Test D post-emergence, other plants of Tables D2 and D4
Type: in vivo
Conditions: for damage to plant (100=total damage to plant; 0=no damage to plant), ABUTH / damage to plant (100=total damage to plant; 0=no damage to plant), AMARE / damage to plant (100=total damage to plant; 0=no damage to plant), BIDPI / damage to plant (100=total damage to plant; 0=no damage to plant), BRAPL / damage to plant (100=total damage to plant; 0=no damage to plant), CYPES / damage to plant (100=total damage to plant; 0=no damage to plant), DIGSA / damage to plant (100=total damage to plant; 0=no damage to plant), ECHCG / damage to plant (100=total damage to plant; 0=no damage to plant), ELEIN / damage to plant (100=total damage to plant; 0=no damage to plant), EPHHL / damage to plant (100=total damage to plant; 0=no damage to plant), GLXMA / damage to plant (100=total damage to plant; 0=no damage to plant), IPOHE / damage to plant (100=total damage to plant; 0=no damage to plant), ORYSA / damage to plant (100=total damage to plant; 0=no damage to plant), PANMI / damage to plant (100=total damage to plant; 0=no damage to plant), SETFA / damage to plant (100=total damage to plant; 0=no damage to plant), SORVU: post-emergence
Method: A formulation containing 50 g/L of the test chemical was prepared by dissolving the active ingredient in a mixture of organic solvents and emulsifier, details of which are provided in the table. This formulation was then mixed with a small, variable amount of acetone to aid dissolution, before addition of a 0.2% v/v aqueous solution of an adjuvant, as the aqueous diluent, to form an aqueous spray solution which contains a predetermined concentration of the active ingredient.
This aqueous spray solution was then sprayed onto plants including maize and wheat that had been seed treated with a herbicide safener, after one day's cultivation (for pre-emergence) or after about 12 days' cultivation (for post-emergence). The plants were grown from seeds sown in standard soil, placed in a glasshouse under controlled conditions (at 24/18° C. or 20/16° C., day/night; 16 h light; 65% humidity). After spray application the plants were then grown in a glasshouse under the same conditions and watered twice daily. After 15 d for post-emergence and 20 DAA for pre-emergence the test was evaluated (100=total damage to plant; 0=no damage to plant).

[1] = "Cereals" Postemergent, Rates 130, evaluated after 15 d
[2] = "Cereals" Postemergent, Rates 250, evaluated after 15 d
[3] = "Cereals" Postemergent, Rates 500, evaluated after 15 d

CN1CC(c2cc(C(F)(F)F)n(C)n2)C(C(=O)Nc2ccc(F)c(F)c2F)C1=O (racemic) [Compound 17]
ALOMY damage rating (100=total damage to plant; 0=no damage to plant) [1]: 30 | ALOMY damage rating (100=total damage to plant; 0=no damage to plant) [2]: 50 | ALOMY damage rating (100=total damage to plant; 0=no damage to plant) [3]: 70 | AVEFA damage rating (100=total damage to plant; 0=no damage to plant) [1]: 0 | AVEFA damage rating (100=total damage to plant; 0=no damage to plant) [2]: 30 | AVEFA damage rating (100=total damage to plant; 0=no damage to plant) [3]: 60 | BEAVA damage rating (100=total damage to plant; 0=no damage to plant) [1]: 10 | BEAVA damage rating (100=total damage to plant; 0=no damage to plant) [2]: 20 | BEAVA damage rating (100=total damage to plant; 0=no damage to plant) [3]: 20 | BROTE damage rating (100=total damage to plant; 0=no damage to plant) [1]: 0 | BROTE damage rating (100=total damage to plant; 0=no damage to plant) [2]: 10 | BROTE damage rating (100=total damage to plant; 0=no damage to plant) [3]: 20 | BRSNN damage rating (100=total damage to plant; 0=no damage to plant) [1]: 0 | BRSNN damage rating (100=total damage to plant; 0=no damage to plant) [2]: 20 | BRSNN damage rating (100=total damage to plant; 0=no damage to plant) [3]: 20 | CHEAL damage rating (100=total damage to plant; 0=no damage to plant) [1]: 0 | CHEAL damage rating (100=total damage to plant; 0=no damage to plant) [2]: 60 | CHEAL damage rating (100=total damage to plant; 0=no damage to plant) [3]: 50 | GALAP damage rating (100=total damage to plant; 0=no damage to plant) [1]: 0 | GALAP damage rating (100=total damage to plant; 0=no damage to plant) [2]: 40 | GALAP damage rating (100=total damage to plant; 0=no damage to plant) [3]: 30 | HORVW damage rating (100=total damage to plant; 0=no damage to plant) [1]: 10 | HORVW damage rating (100=total damage to plant; 0=no damage to plant) [2]: 40 | HORVW damage rating (100=total damage to plant; 0=no damage to plant) [3]: 80 | KCHSC damage rating (100=total damage to plant; 0=no damage to plant) [1]: 0 | KCHSC damage rating (100=total damage to plant; 0=no damage to plant) [2]: 0 | KCHSC damage rating (100=total damage to plant; 0=no damage to plant) [3]: 20 | LOLPE damage rating (100=total damage to plant; 0=no damage to plant) [1]: 0 | LOLPE damage rating (100=total damage to plant; 0=no damage to plant) [2]: 30 | LOLPE damage rating (100=total damage to plant; 0=no damage to plant) [3]: 60 | POAAN damage rating (100=total damage to plant; 0=no damage to plant) [1]: 60 | POAAN damage rating (100=total damage to plant; 0=no damage to plant) [2]: 80 | POAAN damage rating (100=total damage to plant; 0=no damage to plant) [3]: 90 | POLCO damage rating (100=total damage to plant; 0=no damage to plant) [1]: 0 | POLCO damage rating (100=total damage to plant; 0=no damage to plant) [2]: 0 | POLCO damage rating (100=total damage to plant; 0=no damage to plant) [3]: 10 | SINAR damage rating (100=total damage to plant; 0=no damage to plant) (SINAR, "Cereals" Postemergent, Rates 500, evaluated after 15 d): 60 | STEME damage rating (100=total damage to plant; 0=no damage to plant) [1]: 0 | STEME damage rating (100=total damage to plant; 0=no damage to plant) [2]: 0 | STEME damage rating (100=total damage to plant; 0=no damage to plant) [3]: 30 | VERPE damage rating (100=total damage to plant; 0=no damage to plant) [1]: 30 | VERPE damage rating (100=total damage to plant; 0=no damage to plant) [2]: 70 | VERPE damage rating (100=total damage to plant; 0=no damage to plant) [3]: 60 | damage to plant (100=total damage to plant; 0=no damage to plant), ABUTH (rate 130, evaluated after 15 d): 0 | damage to plant (100=total damage to plant; 0=no damage to plant), ABUTH (rate 250, evaluated after 15 d): 0 | damage to plant (100=total damage to plant; 0=no damage to plant), ABUTH (rate 500, evaluated after 15 d): 20 | damage to plant (100=total damage to plant; 0=no damage to plant), AMARE (rate 250, evaluated after 15 d): 20 | damage to plant (100=total damage to plant; 0=no damage to plant), AMARE (rate 500, evaluated after 15 d): 40 | damage to plant (100=total damage to plant; 0=no damage to plant), BIDPI (rate 130, evaluated after 15 d): 0 | damage to plant (100=total damage to plant; 0=no damage to plant), BIDPI (rate 250, evaluated after 15 d): 0 | damage to plant (100=total damage to plant; 0=no damage to plant), BIDPI (rate 500, evaluated after 15 d): 0 | damage to plant (100=total damage to plant; 0=no damage to plant), BRAPL (rate 130, evaluated after 15 d): 70 | damage to plant (100=total damage to plant; 0=no damage to plant), BRAPL (rate 250, evaluated after 15 d): 80 | damage to plant (100=total damage to plant; 0=no damage to plant), BRAPL (rate 500, evaluated after 15 d): 80 | damage to plant (100=total damage to plant; 0=no damage to plant), CYPES (rate 130, evaluated after 15 d): 0 | damage to plant (100=total damage to plant; 0=no damage to plant), CYPES (rate 250, evaluated after 15 d): 0 | damage to plant (100=total damage to plant; 0=no damage to plant), CYPES (rate 500, evaluated after 15 d): 10 | damage to plant (100=total damage to plant; 0=no damage to plant), DIGSA (rate 130, evaluated after 15 d): 70 | damage to plant (100=total damage to plant; 0=no damage to plant), DIGSA (rate 250, evaluated after 15 d): 80 | damage to plant (100=total damage to plant; 0=no damage to plant), DIGSA (rate 500, evaluated after 15 d): 80 | damage to plant (100=total damage to plant; 0=no damage to plant), ECHCG (rate 130, evaluated after 15 d): 80 | damage to plant (100=total damage to plant; 0=no damage to plant), ECHCG (rate 250, evaluated after 15 d): 80 | damage to plant (100=total damage to plant; 0=no damage to plant), ECHCG (rate 500, evaluated after 15 d): 80 | damage to plant (100=total damage to plant; 0=no damage to plant), ELEIN (rate 130, evaluated after 15 d): 0 | damage to plant (100=total damage to plant; 0=no damage to plant), ELEIN (rate 250, evaluated after 15 d): 10 | damage to plant (100=total damage to plant; 0=no damage to plant), ELEIN (rate 500, evaluated after 15 d): 20 | damage to plant (100=total damage to plant; 0=no damage to plant), EPHHL (rate 130, evaluated after 15 d): 10 | damage to plant (100=total damage to plant; 0=no damage to plant), EPHHL (rate 250, evaluated after 15 d): 20 | damage to plant (100=total damage to plant; 0=no damage to plant), EPHHL (rate 500, evaluated after 15 d): 30 | damage to plant (100=total damage to plant; 0=no damage to plant), GLXMA (rate 130, evaluated after 15 d): 0 | damage to plant (100=total damage to plant; 0=no damage to plant), GLXMA (rate 250, evaluated after 15 d): 0 | damage to plant (100=total damage to plant; 0=no damage to plant), GLXMA (rate 500, evaluated after 15 d): 10 | damage to plant (100=total damage to plant; 0=no damage to plant), IPOHE (rate 130, evaluated after 15 d): 0 | damage to plant (100=total damage to plant; 0=no damage to plant), IPOHE (rate 250, evaluated after 15 d): 0 | damage to plant (100=total damage to plant; 0=no damage to plant), IPOHE (rate 500, evaluated after 15 d): 10 | damage to plant (100=total damage to plant; 0=no damage to plant), ORYSA (rate 130, evaluated after 15 d): 0 | damage to plant (100=total damage to plant; 0=no damage to plant), ORYSA (rate 250, evaluated after 15 d): 0 | damage to plant (100=total damage to plant; 0=no damage to plant), ORYSA (rate 500, evaluated after 15 d): 10 | damage to plant (100=total damage to plant; 0=no damage to plant), PANMI (rate 130, evaluated after 15 d): 0 | damage to plant (100=total damage to plant; 0=no damage to plant), PANMI (rate 250, evaluated after 15 d): 0 | damage to plant (100=total damage to plant; 0=no damage to plant), PANMI (rate 500, evaluated after 15 d): 0 | damage to plant (100=total damage to plant; 0=no damage to plant), SETFA (rate 130, evaluated after 15 d): 60 | damage to plant (100=total damage to plant; 0=no damage to plant), SETFA (rate 250, evaluated after 15 d): 70 | damage to plant (100=total damage to plant; 0=no damage to plant), SETFA (rate 500, evaluated after 15 d): 70 | damage to plant (100=total damage to plant; 0=no damage to plant), SORVU (rate 130, evaluated after 15 d): 0 | damage to plant (100=total damage to plant; 0=no damage to plant), SORVU (rate 250, evaluated after 15 d): 0 | damage to plant (100=total damage to plant; 0=no damage to plant), SORVU (rate 500, evaluated after 15 d): 0
